Our source for the Dmax and DC50 values is patent US11427548B2 (Arvinas Operations, Inc., priority 2015, dated 2022).

Experiment [1] has as its target T1, Androgen Receptor (Homo sapiens, UniProt P10275).
T1 construct: endogenous in cells; host or cells: VCaP cells
T1 sequence (P10275 1-920): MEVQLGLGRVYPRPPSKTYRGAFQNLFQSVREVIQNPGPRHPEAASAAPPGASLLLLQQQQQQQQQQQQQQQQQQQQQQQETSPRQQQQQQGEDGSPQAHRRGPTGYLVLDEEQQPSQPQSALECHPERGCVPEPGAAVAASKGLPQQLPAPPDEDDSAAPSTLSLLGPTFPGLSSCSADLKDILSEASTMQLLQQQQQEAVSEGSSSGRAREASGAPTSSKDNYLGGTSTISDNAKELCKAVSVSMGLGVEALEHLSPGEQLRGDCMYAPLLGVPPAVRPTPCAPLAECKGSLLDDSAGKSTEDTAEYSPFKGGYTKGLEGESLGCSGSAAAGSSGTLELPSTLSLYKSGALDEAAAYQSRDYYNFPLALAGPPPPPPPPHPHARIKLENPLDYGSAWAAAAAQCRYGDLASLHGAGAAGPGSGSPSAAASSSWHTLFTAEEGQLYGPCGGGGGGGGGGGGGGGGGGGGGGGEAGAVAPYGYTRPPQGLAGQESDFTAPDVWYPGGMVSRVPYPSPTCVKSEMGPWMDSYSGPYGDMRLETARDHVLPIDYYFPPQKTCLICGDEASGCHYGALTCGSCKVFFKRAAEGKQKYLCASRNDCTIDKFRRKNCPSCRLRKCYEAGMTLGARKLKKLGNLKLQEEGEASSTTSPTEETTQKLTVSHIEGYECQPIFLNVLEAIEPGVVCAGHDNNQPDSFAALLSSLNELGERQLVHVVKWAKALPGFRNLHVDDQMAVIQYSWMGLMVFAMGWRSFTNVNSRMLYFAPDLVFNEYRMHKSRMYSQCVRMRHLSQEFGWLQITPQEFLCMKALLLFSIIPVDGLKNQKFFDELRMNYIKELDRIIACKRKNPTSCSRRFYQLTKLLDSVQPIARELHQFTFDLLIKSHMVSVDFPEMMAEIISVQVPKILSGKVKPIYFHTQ
Briefly: Androgen Receptor ELISA assay (PathScan AR ELISA) in VCaP cells: AR degradation, Dmax and DC50. Format: cell-based. The method in brief:
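VCaP cells in phenol red-free RPMI with 5% charcoal-stripped FBS were grown at least 3 days, then given compound as 7 half-log doses in 0.1% DMSO with 0.1 nM R1881 for 24 h. Lysates went into a sandwich AR ELISA with TMB read at 450 nm.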
In general terms: In an ELISA, binding on a coated surface is turned into a signal by an enzyme label.

Experiment [2] has as its target T2, Androgen Receptor (Homo sapiens, UniProt P10275+P40337, T878A).
T2 construct: Compounds have been evaluated in this assay in LNCaP and/or VCaP cells utilizing similar protocols; endogenous in cells; host or cells: LNCaP cells
Briefly: Androgen Receptor ELISA assay (PathScan AR ELISA) in LNCaP cells: AR degradation, Dmax and DC50. The experiment is classed as cell-based. To be noted: for DC50: concentration that caused 50% Androgen Receptor degradation; for Dmax: highest percentage of Androgen Receptor degradation observed.

Setting [3] is: read-out: VCaP DC50; concentration that caused 50% Androgen Receptor degradation, VCaP cells.

Where two headings read alike, the source gives them in different places.

T2 sequence (P10275 whole entry T878A): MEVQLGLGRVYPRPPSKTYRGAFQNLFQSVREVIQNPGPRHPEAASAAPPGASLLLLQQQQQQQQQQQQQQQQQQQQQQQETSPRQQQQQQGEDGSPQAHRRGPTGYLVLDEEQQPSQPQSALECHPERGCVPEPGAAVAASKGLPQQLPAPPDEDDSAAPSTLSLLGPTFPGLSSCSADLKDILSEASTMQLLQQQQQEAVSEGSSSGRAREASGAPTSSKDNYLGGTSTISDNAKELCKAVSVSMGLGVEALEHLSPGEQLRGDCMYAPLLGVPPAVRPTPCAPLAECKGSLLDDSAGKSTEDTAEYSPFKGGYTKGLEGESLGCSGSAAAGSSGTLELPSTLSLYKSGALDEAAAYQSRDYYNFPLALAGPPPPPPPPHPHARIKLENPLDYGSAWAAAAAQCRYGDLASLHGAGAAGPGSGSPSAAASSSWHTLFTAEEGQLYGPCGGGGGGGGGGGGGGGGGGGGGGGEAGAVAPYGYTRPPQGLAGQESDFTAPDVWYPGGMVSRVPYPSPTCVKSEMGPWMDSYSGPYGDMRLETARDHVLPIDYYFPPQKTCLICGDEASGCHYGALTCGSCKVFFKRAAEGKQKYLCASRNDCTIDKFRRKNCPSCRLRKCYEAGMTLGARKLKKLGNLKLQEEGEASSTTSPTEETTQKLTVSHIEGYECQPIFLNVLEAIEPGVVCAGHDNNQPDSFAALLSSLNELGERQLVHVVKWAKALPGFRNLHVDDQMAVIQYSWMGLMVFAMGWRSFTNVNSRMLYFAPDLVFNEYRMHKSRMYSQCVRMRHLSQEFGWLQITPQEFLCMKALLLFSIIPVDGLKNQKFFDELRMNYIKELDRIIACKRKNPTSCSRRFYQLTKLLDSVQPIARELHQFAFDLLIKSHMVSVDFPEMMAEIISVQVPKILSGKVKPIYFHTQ
T2 sequence (P40337 whole entry): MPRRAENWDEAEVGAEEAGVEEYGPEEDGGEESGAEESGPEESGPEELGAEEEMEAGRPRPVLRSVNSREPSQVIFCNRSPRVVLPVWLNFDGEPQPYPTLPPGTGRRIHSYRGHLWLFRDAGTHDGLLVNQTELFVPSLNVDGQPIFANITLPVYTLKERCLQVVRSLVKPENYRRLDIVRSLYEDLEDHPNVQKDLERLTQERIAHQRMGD
T2 sequence (Q15369 whole entry partner): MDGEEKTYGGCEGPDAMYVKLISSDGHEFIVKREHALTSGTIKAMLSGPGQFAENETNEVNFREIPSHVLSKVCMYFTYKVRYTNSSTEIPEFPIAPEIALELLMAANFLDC
T2 sequence (Q15370 whole entry partner): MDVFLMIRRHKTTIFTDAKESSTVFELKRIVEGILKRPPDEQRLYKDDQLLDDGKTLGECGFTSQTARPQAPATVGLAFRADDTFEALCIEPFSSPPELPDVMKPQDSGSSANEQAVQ

For orientation: Dmax means the largest share of the target that was removed. Broadly, the DC50 is the concentration giving 50% degradation. For the compound `Cc1ncsc1-c1ccc(CNC(=O)[C@@H]2C[C@@H](O)CN2C(=O)[C@@H](NC(=O)COCCCOCCCCOc2ccc(N3C(=S)N(c4ccc(C#N)c(Cl)c4)C(=O)C3(C)C)cc2)C(C)(C)C)cc1` [Example 31, (2S,4R)-1-[(2S)-2-{2-[3-(4-{4-[3-(3-chloro-4-cyanophenyl)-5,5-dimethyl-4-oxo-2-sulfanylideneimidazolidin-1-yl]phenoxy}butoxy)propoxy]acetamido}-3,3-dimethylbutanoyl]-4-hydroxy-N-{[4-(4-methyl-1,3-thiazol-5-yl)phenyl]methyl}pyrrolidine-2-carboxamide], the greatest degradation seen (Dmax) was over 71% on Androgen Receptor [1] (VCaP, read-out: VCaP Dmax (%)) and over 71% on Androgen Receptor [2]. The half-maximal degradation concentration (DC50) at Androgen Receptor [1] (setting [3]) and at Androgen Receptor [2] was under 50 nM throughout.
Take `COc1cc(N2C(=O)C(C)(C)N(c3ccc(OCCCCOCCCOCC(=O)N[C@H](C(=O)N4C[C@H](O)C[C@H]4C(=O)NCc4ccc(-c5scnc5C)cc4)C(C)(C)C)cc3)C2=S)ccc1C#N` [Example 32, (2S,4R)-1-[(2S)-2-{2-[3-(4-{4-[3-(4-cyano-3-methoxyphenyl)-5,5-dimethyl-4-oxo-2-sulfanylideneimidazolidin-1-yl]phenoxy}butoxy)propoxy]acetamido}-3,3-dimethylbutanoyl]-4-hydroxy-N-{[4-(4-methyl-1,3-thiazol-5-yl)phenyl]methyl}pyrrolidine-2-carboxamide]: the Dmax is 51 to 70% on Androgen Receptor [1] (VCaP, highest percentage of Androgen Receptor degradation observed, VCaP cells; read-out: VCaP Dmax (%)) and over 71% at Androgen Receptor [2]. Further, the DC50 on Androgen Receptor [1] (concentration that caused 50% Androgen Receptor degradation, VCaP cells; read-out: VCaP DC50) is under 50 nM; at Androgen Receptor [2], under 50 nM.
Turning to `Cc1ncsc1-c1ccc(CNC(=O)[C@@H]2C[C@@H](O)CN2C(=O)[C@@H](NC(=O)COCCCCOCCCOc2ccc(N3C(=S)N(c4ccc(C#N)c(C(F)(F)F)c4)C(=O)C3(C)C)cc2)C(C)(C)C)cc1` [Example 52, (2S,4R)-1-[(2S)-2-(2-{4-[3-(4-{3-[4-cyano-3-(trifluoromethyl)phenyl]-5,5-dimethyl-4-oxo-2-sulfanylideneimidazolidin-1-yl}phenoxy)propoxy]butoxy}acetamido)-3,3-dimethylbutanoyl]-4-hydroxy-N-{[4-(4-methyl-1,3-thiazol-5-yl)phenyl]methyl}pyrrolidine-2-carboxamide], the maximal degradation (Dmax) is over 71% at Androgen Receptor [1] (VCaP, read-out: VCaP Dmax (%)) and over 71% at Androgen Receptor [2]. Besides, the DC50 on Androgen Receptor [1] (setting [3]) and on Androgen Receptor [2] was under 50 nM each time.
Take `Cc1ncsc1-c1ccc(CNC(=O)[C@@H]2C[C@@H](O)CN2C(=O)[C@@H](NC(=O)COCC#CC#CCOc2ccc(N3C(=S)N(c4ccc(C#N)c(C(F)(F)F)c4)C(=O)C3(C)C)cc2)C(C)(C)C)cc1` [Example 54, (2S,4R)-1-((S)-2-(2-(6-(4-(3-(4-cyano-3-(trifluoromethyl)phenyl)-5,5-dimethyl-4-oxo-2-thioxoimidazolidin-1-yl)phenoxy)hexa-2,4-diynyloxy)acetamido)-3,3-dimethylbutanoyl)-4-hydroxy-N-(4-(4-methylthiazol-5-yl)benzyl)pyrrolidine-2-carboxamide]: the Dmax at Androgen Receptor [1] (VCaP, read-out: VCaP Dmax (%)) is over 71%. At Androgen Receptor [2], this compound displayed a 50% degradation concentration (DC50) of over 501 nM and a Dmax of under 25%.
On to `Cc1ncsc1-c1ccc(CNC(=O)[C@@H]2C[C@@H](O)CN2C(=O)[C@@H](NC(=O)CCOCC#CC#CCOc2ccc(N3C(=S)N(c4ccc(C#N)c(C(F)(F)F)c4)C(=O)C3(C)C)cc2)C(C)(C)C)cc1` [Example 55, (2S,4R)-1-[(2S)-2-(3-{[6-(4-{3-[4-cyano-3-(trifluoromethyl)phenyl]-5,5-dimethyl-4-oxo-2-sulfanylideneimidazolidin-1-yl}phenoxy)hexa-2,4-diyn-1-yl]oxy}propanamido)-3,3-dimethylbutanoyl]-4-hydroxy-N-{[4-(4-methyl-1,3-thiazol-5-yl)phenyl]methyl}pyrrolidine-2-carboxamide], for which the Dmax at Androgen Receptor [1] (VCaP, read-out: VCaP Dmax (%)) fell in the range of 51 to 70%; on Androgen Receptor [2], 26 to 50%. On Androgen Receptor [2], this compound returned a DC50 of over 501 nM.
Taken in the same sequence, the figures for `Cc1ncsc1-c1ccc(CNC(=O)[C@@H]2C[C@@H](O)CN2C(=O)[C@@H](NC(=O)CCCOCC#CC#CCOc2ccc(N3C(=S)N(c4ccc(C#N)c(C(F)(F)F)c4)C(=O)C3(C)C)cc2)C(C)(C)C)cc1` [Example 56, (2S,4R)-1-[(2S)-2-(4-{[6-(4-{3-[4-cyano-3-(trifluoromethyl)phenyl]-5,5-dimethyl-4-oxo-2-sulfanylideneimidazolidin-1-yl}phenoxy)hexa-2,4-diyn-1-yl]oxy}butanamido)-3,3-dimethylbutanoyl]-4-hydroxy-N-{[4-(4-methyl-1,3-thiazol-5-yl)phenyl]methyl}pyrrolidine-2-carboxamide] were under 25%, 26 to 50% and over 501 nM.
As for `Cc1ncsc1-c1ccc(CNC(=O)[C@@H]2C[C@@H](O)CN2C(=O)[C@@H](NC(=O)COCCCCCNC(=O)CCCc2ccc(N3C(=S)N(c4ccc(C#N)c(C(F)(F)F)c4)C(=O)C3(C)C)cc2)C(C)(C)C)cc1` [Example 63, (2S,4R)-1-[(2S)-2-[2-({5-[4-(4-{3-[4-cyano-3-(trifluoromethyl)phenyl]-5,5-dimethyl-4-oxo-2-sulfanylideneimidazolidin-1-yl}phenyl)butanamido]pentyl}oxy)acetamido]-3,3-dimethylbutanoyl]-4-hydroxy-N-{[4-(4-methyl-1,3-thiazol-5-yl)phenyl]methyl}pyrrolidine-2-carboxamide], the Dmax was 26 to 50% on Androgen Receptor [1] (VCaP, read-out: VCaP Dmax (%)) and over 71% at Androgen Receptor [2]. The 50% degradation concentration (DC50) on Androgen Receptor [1] (setting [3]) was under 50 nM; at Androgen Receptor [2], 51 to 500 nM.
Taken in the same sequence, the figures for `Cc1ncsc1-c1ccc(CNC(=O)[C@@H]2C[C@@H](O)CN2C(=O)[C@@H](NC(=O)COCCCCCN(C)C(=O)CCCc2ccc(N3C(=S)N(c4ccc(C#N)c(C(F)(F)F)c4)C(=O)C3(C)C)cc2)C(C)(C)C)cc1` [Example 65, (2S,4R)-1-[(2S)-2-[2-({5-[4-(4-{3-[4-cyano-3-(trifluoromethyl)phenyl]-5,5-dimethyl-4-oxo-2-sulfanylideneimidazolidin-1-yl}phenyl)-N-methylbutanamido]pentyl}oxy)acetamido]-3,3-dimethylbutanoyl]-4-hydroxy-N-{[4-(4-methyl-1,3-thiazol-5-yl)phenyl]methyl}pyrrolidine-2-carboxamide] were 51 to 70%, 51 to 70%, under 50 nM and 51 to 500 nM.
Taken in the same sequence, the figures for `Cc1ncsc1-c1ccc(CNC(=O)[C@@H]2C[C@@H](O)CN2C(=O)[C@@H](NC(=O)OCCOCCOc2ccc(-c3ccc(N4C(=S)N(c5ccc(C#N)c(C(F)(F)F)c5)C(=O)C4(C)C)cc3)cc2)C(C)(C)C)cc1` [Example 66, 2-(2-(4′-(3-(4-cyano-3-(trifluoromethyl)phenyl)-5,5-dimethyl-4-oxo-2-thioxoimidazolidin-1-yl)biphenyl-4-yloxy)ethoxy)ethyl (S)-1-((2S,4R)-4-hydroxy-2-(4-(4-methylthiazol-5-yl)benzylcarbamoyl)pyrrolidin-1-yl)-3,3-dimethyl-1-oxobutan-2-ylcarbamate] were 26 to 50%, 51 to 70%, 51 to 500 nM and 51 to 500 nM.
`Cc1ncsc1-c1ccc(CNC(=O)[C@@H]2C[C@@H](O)CN2C(=O)[C@@H](NC(=O)COCCOCCOc2ccc(-c3ccc(N4C(=S)N(c5ccc(C#N)c(C(F)(F)F)c5)C(=O)C4(C)C)cc3)cc2)C(C)(C)C)cc1` [Example 67, (2S,4R)-1-((S)-2-(2-(2-(2-(4′-(3-(4-cyano-3-(trifluoromethyl)phenyl)-5,5-dimethyl-4-oxo-2-thioxoimidazolidin-1-yl)biphenyl-4-yloxy)ethoxy)ethoxy)acetamido)-3,3-dimethylbutanoyl)-4-hydroxy-N-(4-(4-methylthiazol-5-yl)benzyl)pyrrolidine-2-carboxamide]: the maximal degradation (Dmax) is 26 to 50% at Androgen Receptor [1] (VCaP, read-out: VCaP Dmax (%)) and over 71% at Androgen Receptor [2]. The DC50 on Androgen Receptor [1] (setting [3]) and on Androgen Receptor [2] was under 50 nM each time.
